Assay results taken from patent publication US10597388B2, “Pyridazinone herbicides” (FMC CORPORATION, priority 2014, dated 2020).

Legend:
Assay in all cases: Test D controlled growth environment herbicide test, pre- and postemergence
Assay type in all cases: in vivo
[1] = tested on: oilseed rape (Brassica napus)
Source text: (§1) Seeds of plant species selected from bluegrass (annual bluegrass, Poa annua), blackgrass (Alopecurus myosuroides), Canada thistle (Cirsium arvense), canarygrass (Phalaris minor), chickweed (common chickweed, Stellaria media), geranium, cutleaf (cutleaf geranium, Geranium dissectum), galium (catchweed bedstraw, Galium aparine), bromegrass, downy (downy bromegrass, Bromus tectorum), field poppy (Papaver rhoeas), field violet (Viola arvensis), foxtail, green (green foxtail, Setaria viridis), deadnettle (henbit deadnettle, Lamium amplexicaule), ryegrass, Italian (Italian ryegrass, Lolium multiflorum), kochia (Kochia scoparia), lambsquarters (Chenopodium album), oilseed rape (Brassica napus), pigweed (Amaranthus retroflexus), chamomile (scentless chamomile, Matricaria inodora), Russian thistle (Salsola kali), speedwell (bird's-eye speedwell, Veronica persica), barley, spring (spring barley, Hordeum vulgare), wheat, spring (spring wheat, Triticum aestivum), buckwheat, wild (wild buckwheat, Polygonum convolvulus), mustard, wild (wild mustard, Sinapis arvensis), oat, wild (wild oat, Avena fatua), radish, wild (wild radish, Raphanus raphanistrum), windgrass (Apera spica-venti), barley, winter (winter barley, Hordeum vulgare), and wheat, winter (winter wheat, Triticum aestivum) were planted into a silt loam soil and treated preemergence with test chemicals formulated in a non-phytotoxic solvent mixture which included a surfactant.
(§2) At the same time, these species were planted in pots containing Redi-Earth® planting medium (Scotts Company, 14111 Scottslawn Road, Marysville, Ohio 43041) comprising spaghnum peat moss, vermiculite, wetting agent and starter nutrients and treated with postemergence applications of the test chemicals formulated in the same manner. Plants ranged in height from 2 to 18 cm (1- to 4-leaf stage). Treated plants and controls were maintained in a controlled growth environment for 14 to 21 d after which time all species were compared to controls and visually evaluated. Plant response ratings, summarized in Table D, are based on a scale of 0 to 100 where 0 is no effect and 100 is complete control. A dash (-) response means no test result.

[2] = tested on: field poppy (Papaver rhoeas)
Source text: as §1, §2

[3] = tested on: field violet (Viola arvensis)
Source text: as §1, §2

[4] = tested on: speedwell (bird's-eye speedwell, Veronica persica)
Source text: as §1, §2

[5] = tested on: wheat, winter (winter wheat, Triticum aestivum)
Source text: as §1, §2

[6] = tested on: radish, wild (wild radish, Raphanus raphanistrum)
Source text: as §1, §2

[7] = tested on: chickweed (common chickweed, Stellaria media)
Source text: as §1, §2

[8] = tested on: mustard, wild (wild mustard, Sinapis arvensis)
Source text: as §1, §2

[9] = tested on: deadnettle (henbit deadnettle, Lamium amplexicaule)
Source text: as §1, §2

[10] = tested on: barley, spring (spring barley, Hordeum vulgare)
Source text: as §1, §2

kochia (Kochia scoparia) = tested on: kochia (Kochia scoparia)
Source text: as §1, §2

[11] = tested on: chamomile (scentless chamomile, Matricaria inodora)
Source text: as §1, §2

[12] = tested on: oat, wild (wild oat, Avena fatua)
Source text: as §1, §2

[13] = Postemergence, 31 g ai/ha, scale 0 to 100 (0 no effect, 100 complete control)
[14] = Postemergence, 125 g ai/ha, visual rating on scale 0 (no effect) to 100 (complete control), 14 to 21 d
[15] = Postemergence, 250 g ai/ha, scale 0 to 100 (0 no effect, 100 complete control)
[16] = Preemergence, 62 g ai/ha, scale 0 to 100 (0 no effect, 100 complete control)
[17] = Preemergence, 125 g ai/ha, scale 0 to 100 (0 no effect, 100 complete control)
[18] = Preemergence, 250 g ai/ha, scale 0 to 100, 0 no effect, 100 complete control
[19] = postemergence, 62 g ai/ha, scale 0 to 100, 0 no effect, 100 complete control

Question: What does the source list for CCc1sc2c(C)cc(C)cc2c1-c1c(O)c(C)nn(C)c1=O [Compound 57]?
Answer: Oilseed Rape plant response rating [1, 13]: 20; Plant response rating, Oilseed Rape [1, 14]: 65; Plant response rating, Oilseed Rape [1, 15]: 65; Plant response rating (scale of 0 to 100), Oilseed Rape ([1]; Preemergence, 31 g ai/ha): 0; Plant response rating, Oilseed Rape [1, 16]: 0; Plant response rating, Oilseed Rape [1, 17]: 0; Plant response rating, Oilseed Rape [1, 18]: 25; Plant response rating, Oilseed Rape [1, 19]: 25; Field Poppy plant response rating [2, 13]: 100; Plant response rating, Field Poppy [2, 14]: 100; Plant response rating, Field Poppy [2, 15]: 100; Plant response rating (scale of 0 to 100), Field Poppy ([2]; Preemergence, 31 g ai/ha): 100; Plant response rating, Field Poppy [2, 16]: 100; Plant response rating, Field Poppy [2, 17]: 100; Plant response rating, Field Poppy [2, 18]: 100; Plant response rating, Field Poppy [2, 19]: 100; Field Violet plant response rating [3, 13]: 80; Plant response rating, Field Violet [3, 14]: 75; Plant response rating, Field Violet [3, 15]: 85; Plant response rating (scale of 0 to 100), Field Violet ([3]; Preemergence, 31 g ai/ha): 95; Plant response rating, Field Violet [3, 16]: 100; Plant response rating, Field Violet [3, 17]: 100; Plant response rating, Field Violet [3, 18]: 100; Plant response rating, Field Violet [3, 19]: 70; Speedwell plant response rating [4, 13]: 100; Plant response rating, Speedwell [4, 14]: 25; Plant response rating, Speedwell [4, 15]: 100; Plant response rating (scale of 0 to 100), Speedwell ([4]; Preemergence, 31 g ai/ha): 25; Plant response rating, Speedwell [4, 16]: 90; Plant response rating, Speedwell [4, 17]: 100; Plant response rating, Speedwell [4, 18]: 100; Plant response rating, Speedwell [4, 19]: 15; Wheat, Winter plant response rating [5, 13]: 5; Plant response rating, Wheat, Winter [5, 14]: 10; Plant response rating, Wheat, Winter [5, 15]: 15; Plant response rating (scale of 0 to 100), Wheat, Winter ([5]; Preemergence, 31 g ai/ha): 5; Plant response rating, Wheat, Winter [5, 16]: 5; Plant response rating, Wheat, Winter [5, 17]: 5; Plant response rating, Wheat, Winter [5, 18]: 10; Plant response rating, Wheat, Winter [5, 19]: 10; Radish, Wild plant response rating [6, 13]: 40; Plant response rating, Radish, Wild [6, 14]: 100; Plant response rating, Radish, Wild [6, 15]: 90; Plant response rating (scale of 0 to 100), Radish, Wild ([6]; Preemergence, 31 g ai/ha): 0; Plant response rating, Radish, Wild [6, 16]: 10; Plant response rating, Radish, Wild [6, 17]: 25; Plant response rating, Radish, Wild [6, 18]: 100; Plant response rating, Radish, Wild [6, 19]: 100; Chickweed plant response rating [7, 13]: 100; Plant response rating, Chickweed [7, 14]: 100; Plant response rating, Chickweed [7, 15]: 100; Plant response rating (scale of 0 to 100), Chickweed ([7]; Preemergence, 31 g ai/ha): 100; Plant response rating, Chickweed [7, 16]: 100; Plant response rating, Chickweed [7, 17]: 100; Plant response rating, Chickweed [7, 18]: 100; Plant response rating, Chickweed [7, 19]: 100; Mustard, Wild plant response rating [8, 13]: 30; Plant response rating, Mustard, Wild [8, 14]: 30; Plant response rating, Mustard, Wild [8, 15]: 40; Plant response rating (scale of 0 to 100), Mustard, Wild ([8]; Preemergence, 31 g ai/ha): 0; Plant response rating, Mustard, Wild [8, 16]: 25; Plant response rating, Mustard, Wild [8, 17]: 25; Plant response rating, Mustard, Wild [8, 18]: 30; Plant response rating, Mustard, Wild [8, 19]: 30; Deadnettle plant response rating [9, 13]: 70; Plant response rating, Deadnettle [9, 14]: 85; Plant response rating, Deadnettle [9, 15]: 100; Plant response rating (scale of 0 to 100), Deadnettle ([9]; Preemergence, 31 g ai/ha): 0; Plant response rating, Deadnettle [9, 16]: 20; Plant response rating, Deadnettle [9, 17]: 25; Plant response rating, Deadnettle [9, 18]: 45; Plant response rating, Deadnettle [9, 19]: 90; Barley, Spring plant response rating [10, 13]: 10; Plant response rating, Barley, Spring [10, 14]: 10; Plant response rating, Barley, Spring [10, 15]: 10; Plant response rating (scale of 0 to 100), Barley, Spring ([10]; Preemergence, 31 g ai/ha): 5; Plant response rating, Barley, Spring [10, 16]: 10; Plant response rating, Barley, Spring [10, 17]: 10; Plant response rating, Barley, Spring [10, 18]: 10; Plant response rating, Barley, Spring [10, 19]: 10; Kochia plant response rating (kochia (Kochia scoparia); [13]): 40; Plant response rating, Kochia (kochia (Kochia scoparia); [14]): 65; Plant response rating, Kochia (kochia (Kochia scoparia); [15]): 75; Plant response rating (scale of 0 to 100), Kochia (kochia (Kochia scoparia); Preemergence, 31 g ai/ha): 10; Plant response rating, Kochia (kochia (Kochia scoparia); [16]): 10; Plant response rating, Kochia (kochia (Kochia scoparia); [17]): 35; Plant response rating, Kochia (kochia (Kochia scoparia); [18]): 100; Plant response rating, Kochia (kochia (Kochia scoparia); [19]): 55; Chamomile plant response rating [11, 13]: 100; Plant response rating, Chamomile [11, 14]: 100; Plant response rating, Chamomile [11, 15]: 100; Plant response rating, Chamomile [11, 19]: 100; Oat, Wild plant response rating [12, 13]: 15; Plant response rating, Oat, Wild [12, 14]: 65; Plant response rating, Oat, Wild [12, 15]: 85; Plant response rating (scale of 0 to 100), Oat, Wild ([12]; Preemergence, 31 g ai/ha): 15; Plant response rating, Oat, Wild [12, 16]: 30; Plant response rating, Oat, Wild [12, 17]: 50; Plant response rating, Oat, Wild [12, 18]: 60; Plant response rating, Oat, Wild [12, 19]: 25
